Experimental data as given in publication PMC4142572 (Bioorganic & medicinal chemistry letters, 2014).

Biological target: hPDE4B (Homo sapiens, UniProt Q07343)
Experiment: Enzymatic inhibition of PDE4B long isoform in vitro
Assay type: biochemical
Conditions: for PDE4B-subtype selectivity: enzymatic assays using PDE4B1 and PDE4D7

Chain of hPDE4B (Q07343 whole entry, canonical isoform): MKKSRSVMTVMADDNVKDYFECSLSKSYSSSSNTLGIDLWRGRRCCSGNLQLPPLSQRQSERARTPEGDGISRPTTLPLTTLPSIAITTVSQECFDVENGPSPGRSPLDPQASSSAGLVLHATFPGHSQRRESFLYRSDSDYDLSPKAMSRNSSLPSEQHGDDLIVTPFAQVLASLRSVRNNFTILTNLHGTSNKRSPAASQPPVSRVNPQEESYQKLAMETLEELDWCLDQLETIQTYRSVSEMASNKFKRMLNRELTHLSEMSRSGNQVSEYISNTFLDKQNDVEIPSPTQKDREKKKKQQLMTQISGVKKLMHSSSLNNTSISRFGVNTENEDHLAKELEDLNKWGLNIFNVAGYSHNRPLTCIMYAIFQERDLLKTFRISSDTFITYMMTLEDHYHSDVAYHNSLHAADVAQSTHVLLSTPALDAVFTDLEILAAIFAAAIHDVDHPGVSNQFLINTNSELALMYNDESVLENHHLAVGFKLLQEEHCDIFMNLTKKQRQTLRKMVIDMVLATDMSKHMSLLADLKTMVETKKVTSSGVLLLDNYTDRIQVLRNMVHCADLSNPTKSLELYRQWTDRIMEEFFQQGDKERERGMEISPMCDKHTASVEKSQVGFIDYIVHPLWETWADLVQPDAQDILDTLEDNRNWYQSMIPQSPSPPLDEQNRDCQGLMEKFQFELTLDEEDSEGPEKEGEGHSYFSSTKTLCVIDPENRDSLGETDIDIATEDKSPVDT

Compound	PDE4B-subtype selectivity	IC50
CCOc1nc(Nc2ccc(OC)cc2)nc(OCC)n1 [Compound 1]	does not show PDE4B-subtype selectivity	–
CCc1c(C)nc(-c2ccc(Cl)s2)nc1Nc1ccc(CC(=O)O)cc1 [Compound 2, reference compound]	highly selective for PDE4B	–
O=C(O)Cc1ccc(Nc2nc(-c3ccc(Cl)cc3)nc(C3CC3)n2)cc1 [Compound 9]	–	770 nM
